Assay results reported in patent US8304206B2, “Mass spectrometry assays for identifying compounds that activate deacetylases” (Sirtris Pharmaceuticals, Inc., priority 2005, dated 2012).
Where two headings read alike, the source gives them in different places. No end group written: not given here.

Key:
SIRT1 [1] = target: T1, SIRT1 (Homo sapiens, UniProt Q96EB6); test: DMSO tolerance of SIRT1 mass spectrometry assay; type: biochemical
T1 sequence (Q96EB6 1-747): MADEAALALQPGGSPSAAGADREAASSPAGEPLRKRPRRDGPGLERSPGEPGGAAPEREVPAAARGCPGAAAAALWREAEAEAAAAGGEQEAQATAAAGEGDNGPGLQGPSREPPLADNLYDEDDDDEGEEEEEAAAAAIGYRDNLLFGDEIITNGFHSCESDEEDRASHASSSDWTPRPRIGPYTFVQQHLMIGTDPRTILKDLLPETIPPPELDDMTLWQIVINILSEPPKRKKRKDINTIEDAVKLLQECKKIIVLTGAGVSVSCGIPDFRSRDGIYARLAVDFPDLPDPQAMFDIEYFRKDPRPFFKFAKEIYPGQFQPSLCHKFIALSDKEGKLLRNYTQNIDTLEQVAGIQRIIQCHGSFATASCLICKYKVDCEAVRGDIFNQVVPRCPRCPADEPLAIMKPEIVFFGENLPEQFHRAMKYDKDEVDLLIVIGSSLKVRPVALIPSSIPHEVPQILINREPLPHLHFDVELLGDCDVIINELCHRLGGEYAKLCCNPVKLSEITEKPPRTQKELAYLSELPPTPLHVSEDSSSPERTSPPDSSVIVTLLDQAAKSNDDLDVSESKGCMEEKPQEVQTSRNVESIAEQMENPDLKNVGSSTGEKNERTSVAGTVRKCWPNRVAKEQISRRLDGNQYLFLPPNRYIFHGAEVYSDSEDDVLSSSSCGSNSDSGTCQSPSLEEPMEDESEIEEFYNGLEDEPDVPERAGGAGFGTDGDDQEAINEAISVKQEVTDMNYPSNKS
Experimental: To determine the tolerance of the SIRT1 mass spectrometry assay for DMSO, a rate based experiment was performed at multiple concentrations of DMSO.
Formic acid (10 μL of 10%) was added to all of the wells in column 1 of the 96 well assay plate. Eight concentrations of DMSO (40%, 20%, 10%, 5.0%, 2.5%, 1.25%, 0.625%, and 0.313%) were prepared in buffer containing 50 mM Tris HCl pH 8.0, 137 mM, NaCl, 2.7 mM, KCl, 1 mM MgCl2, 5 mM DTT, and 0.05% BSA.
This DMSO titration was prepared by making a 2000 μL solution of 40% DMSO in 50 mM Tris HCl pH 8.0, 137 mM, NaCl, 2.7 mM, KCl, 1 mM MgCl2, 5 mM DTT, and 0.05%. BSA in well A1 of a Costar 2 mL 96 well Assay Block. Dilution Working Solution (1000 μL; 50 mM Tris HCl pH 8.0, 137 mM, NaCl, 2.7 mM, KCl, 1 mM MgCl2, 5 mM DTT, and 0.05% BSA) was added to wells B1, C1, D1, E1, F1, G1 and H1. 1000 μL of the 40% DMSO in buffer solution was transferred from A1 to […] and the solution was mixed 5 times. This process was repeated with wells in column 1 until well H1 was reached.
Using an 8 channel multi-pipette, 50 μl was transferred from column 1 of the 2 mL 96 well assay block to all columns of a 96 well assay plate.
25 μL of Enzyme Working Solution (40 nM SIRT1, 50 mM Tris HCl pH 8.0, 137 mM, NaCl, 2.7 mM, KCl, 1 mM MgCl2, 5 mM DTT, and 0.05% BSA) was prepared and added to each well of the 96-well round bottom assay plate. […]
At 0, 2, 5, 10, 15, 20, 25, 25, 30, 35, 40, 45, and 60 minutes, the reaction was stopped with 10% formic acid and the conversion of substrate to product was determined by mass spectrometry. The activity of SIRT1 at each concentration of DMSO was monitored by comparing the percent conversion of Acetylated Peptide Substrate to Deacetylated Peptide Product over time. […]
Product formation versus time was plotted for each concentration of DMSO tested. The rate was determined by taking the slope from the linear part of the time course. […]

NCI-H358 cells [2] = test: Cellular ATP Assay (ATPLite 1Step normalized to AlamarBlue viability); type: cell-based, human; details: compounds that raised intracellular ATP levels, 48 hours, read-out: ED50 ATP ASSAY
Experimental: Cellular ATP levels are an indirect measurement of cellular metabolic rates and, by extension, mitochondrial function. […] The ATP assay is combined with a cellular viability assay so that cellular ATP levels can be normalized to viable cells. Cellular ATP levels were measured using the ATPLite 1Step Kit (PerkinElmer) and cellular viability was measured using the cell permeable dye, AlamarBlue™.
The Cellular ATP Assay is a multiplexed assay that measures both ATP levels and viability of a given cell sample. This assay is run in a 96-well Assay Plate and data are reported as the [ATP]/viability for each well in the Assay Plate.
The ATPLite 1Step™ Kit is a single-step luminescent cell-based assay for detection of ATP. The kit contains lyophilized substrate mixture, comprised of D-luciferin and the firefly (Photinus pyralis) enzyme luciferase. Additionally, the kit contains a detergent-based reconstitution buffer that induces the lysis of cellular membranes. The luciferase in the assay mixture catalyzes a reaction between the free cellular ATP and D-luciferin to produce bioluminescence according to the schematic reaction outlined below. […]
The AlamarBlue™ Assay is a single-step assay that utilizes a soluble, non-toxic, cell permeable dye that is added to cell growth media. […] The reduced dye product gives a fluorescent signal which can be monitored with a fluorescence plate reader (excitation 545 nm and emission 575 nm). The amount of fluorescence generated in a given well is proportional to the number of viable cells. […]
In this assay NCI-H358 cells (obtained from the American Tissue Culture Collection, ATCC) were seeded in 96 well microplates (10^4 cells/well). […] Cell microplates were incubated with dye for 2 hours under growth conditions, and fluorescence was subsequently measured using a plate reader. […] Luminescence was then measured using a plate reader. The ATP signal for each well, measured by the luminescence scan, was normalized to its corresponding cell viability value, measured by the fluorescence scan, to generate the average ATP level per viable cell unit (ATP/vCell). […]

SIRT1 [3] = target: T1, SIRT1; test: SIRT1 mass spectrometry assay (screening for activation); type: biochemical
NCI-H358 cells [4] = test: Western blot of mitochondrial mass biomarkers; type: cell-based, human; details: 48 hours; 0, 1, 10 or 100 uM
Experimental: Western blots were conducted to correlate an observed increase in cellular ATP levels upon exposure of cells to a sirtuin activating compound to an increase in mitochondrial mass. […] Cell lysates were then prepared and specific mitochondrial proteins were quantitated by western analysis using antibodies specific to the following proteins: Succinate-Ubiquinol Oxidoreductase (Mitochondrial Complex II Protein, mouse monoclonal, InVitrogen, Cat. #A11142); ATP synthase F1F0 (Mitochondrial Complex V Protein, mouse monoclonal, InVitrogen, Cat.# A21350); NADH-Ubiquinol Oxidoreductase (Mitochondrial Complex I Protein, mouse monoclonal, InVitrogen, Cat. #A21344). Normalization was to alpha tubulin using a rabbit polyclonal (Santa Cruz Biotech, Cat # SC-9104). Secondary antibody used for specific protein detection was AlexaFluor 680 conjugated […] IgG (Goat) (Rockland Immunochemicals, Cat.#610-132-121) and for tubulin expression was IRDye 800 goat anti-mouse IgG (InVitrogen Cat. # A21076). Protein quantification was preformed using infrared dye labeled secondary antibodies followed by blot scan using the Licor® Odyssey® scanner.

SIRT1 [5] = target: T1, SIRT1; test: Effect of compounds on the Km of SIRT1 for Acetylated Peptide Substrate (mass spectrometry); type: biochemical; details: vs DMSO Km
Sirt2 = target: T2, Sirt2 (Homo sapiens, UniProt Q8IXJ6); details: Sirt2, Fluorescent; read-out: Peptide Km; cited from earlier work
T2 sequence (Q8IXJ6 1-389): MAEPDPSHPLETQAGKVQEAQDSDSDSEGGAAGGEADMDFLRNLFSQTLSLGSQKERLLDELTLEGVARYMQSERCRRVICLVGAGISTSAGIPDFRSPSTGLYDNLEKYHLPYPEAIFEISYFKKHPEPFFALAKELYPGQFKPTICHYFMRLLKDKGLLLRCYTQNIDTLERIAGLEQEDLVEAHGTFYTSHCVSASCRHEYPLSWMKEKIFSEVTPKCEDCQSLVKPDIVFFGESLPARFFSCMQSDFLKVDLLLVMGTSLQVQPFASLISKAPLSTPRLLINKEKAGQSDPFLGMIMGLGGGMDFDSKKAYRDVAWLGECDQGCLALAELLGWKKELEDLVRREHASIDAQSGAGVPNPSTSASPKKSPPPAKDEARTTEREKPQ

Sirt3 = target: T3, Sirt3 (Homo sapiens, UniProt Q9NTG7); details: Sirt3, Fluorescent; read-out: Peptide Km; cited from earlier work
T3 sequence (Q9NTG7 1-399): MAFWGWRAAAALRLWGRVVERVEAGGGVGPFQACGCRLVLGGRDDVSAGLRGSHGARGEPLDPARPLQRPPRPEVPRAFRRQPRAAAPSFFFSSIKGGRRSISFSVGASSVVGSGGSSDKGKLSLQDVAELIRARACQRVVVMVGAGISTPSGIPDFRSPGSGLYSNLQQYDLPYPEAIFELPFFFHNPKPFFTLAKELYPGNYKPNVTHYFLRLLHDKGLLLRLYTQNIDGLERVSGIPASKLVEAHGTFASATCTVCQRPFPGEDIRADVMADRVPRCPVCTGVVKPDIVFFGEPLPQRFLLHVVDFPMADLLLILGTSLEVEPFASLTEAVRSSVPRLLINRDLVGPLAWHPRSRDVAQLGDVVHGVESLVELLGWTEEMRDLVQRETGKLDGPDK

SIRT1 [6] = target: T1, SIRT1; details: Sirt1, Fluorescent; read-out: Peptide Km; cited from earlier work

## C[S+](C)[O-] [DMSO]
SIRT1 [1]; 0.625% DMSO
  decrease of SIRT1 enzyme activity: 9.1%
SIRT1 [1]; 1.25% DMSO
  decrease of SIRT1 enzyme activity: 21%
SIRT1 [1]; 2.5% DMSO
  decrease of SIRT1 enzyme activity: 36%

## O=C(NNc1c2ccccc2nc2ccccc12)c1cccnc1 [compound 11]
NCI-H358 cells [2]; Homo sapiens, NCI-H358
  EC50: < 50 µM

## Cc1nc(-c2cccc(Nc3nc4ccccc4s3)c2)cs1 [compound 94]
SIRT1 [3]; activation of SIRT1, mass spectrometry
  FOLD ACTIVATION MS: B (Fold Activation<250%)
SIRT1 [3]; activation of SIRT1, 0.5 μM peptide substrate (SEQ ID NO: 34), 120 μM NAD+, 10 nM SIRT1, 25 min, read-out: ED50 MS ASSAY
  EC50: < 50 µM
NCI-H358 cells [2]; Homo sapiens, NCI-H358
  EC50: > 150 µM

## COc1cccc(OC)c1C(=O)Nc1cccc(-c2nc3ccccc3s2)c1 [compound 120]
NCI-H358 cells [2]
  EC50: < 50 µM

## Oc1ccc(C=Cc2cc(O)cc(O)c2)cc1 [resveratrol]
NCI-H358 cells [4]
  levels of mitochondrial mass biomarkers: increases in the levels of mitochondrial mass biomarkers
SIRT1 [5]; 1.2 μM resveratrol
  decrease of Km for peptide substrate: 2%
SIRT1 [5]; 3.7 μM resveratrol
  decrease of Km for peptide substrate: 14%
SIRT1 [5]; 11 μM resveratrol
  decrease of Km for peptide substrate: 14%
SIRT1 [5]; 33 μM resveratrol
  decrease of Km for peptide substrate: 32%
SIRT1 [5]; 100 μM resveratrol
  decrease of Km for peptide substrate: 46%

## p53 (aa 317-320) *FL (QPKK; also: fluorescent label; UniProt P04637 317-320, looked up, fragment)
Sirt2
  Km: 186 µM
Sirt3
  Km: 32 µM

## p53 (aa 379-382) *FL (RHKK(Ac); not fully specified (C-terminus); printed as Arg-His-Lys-Lys; also: fluorescent label; UniProt P04637 379-382, looked up, fragment)
SIRT1 [6]
  Km: 64 µM
